{"source": "paper PMC9905339", "about": "(Biochemistry, 2023)", "key": {"Rv0099": {"biological_target": "Rv0099 (Mycobacterium tuberculosis, UniProt P9WQ55)", "sequence (P9WQ55 whole entry)": "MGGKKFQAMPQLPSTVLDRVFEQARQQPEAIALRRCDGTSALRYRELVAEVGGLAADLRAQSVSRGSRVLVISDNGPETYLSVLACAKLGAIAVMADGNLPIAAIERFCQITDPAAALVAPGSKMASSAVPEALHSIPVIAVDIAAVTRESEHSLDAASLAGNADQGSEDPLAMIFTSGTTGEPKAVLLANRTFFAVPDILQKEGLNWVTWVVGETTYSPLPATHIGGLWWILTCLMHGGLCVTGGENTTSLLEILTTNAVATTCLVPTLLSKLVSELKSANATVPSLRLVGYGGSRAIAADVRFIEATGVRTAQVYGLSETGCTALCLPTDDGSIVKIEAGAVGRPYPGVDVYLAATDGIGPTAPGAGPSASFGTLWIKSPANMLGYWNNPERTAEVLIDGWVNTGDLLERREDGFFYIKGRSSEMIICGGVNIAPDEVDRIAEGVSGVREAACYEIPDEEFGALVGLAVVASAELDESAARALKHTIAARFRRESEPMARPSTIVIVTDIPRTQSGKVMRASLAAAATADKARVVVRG"}, "MmaA": {"biological_target": "MmaA (Mycobacterium marinum, UniProt B2HKL9)", "sequence (B2HKL9 whole entry)": "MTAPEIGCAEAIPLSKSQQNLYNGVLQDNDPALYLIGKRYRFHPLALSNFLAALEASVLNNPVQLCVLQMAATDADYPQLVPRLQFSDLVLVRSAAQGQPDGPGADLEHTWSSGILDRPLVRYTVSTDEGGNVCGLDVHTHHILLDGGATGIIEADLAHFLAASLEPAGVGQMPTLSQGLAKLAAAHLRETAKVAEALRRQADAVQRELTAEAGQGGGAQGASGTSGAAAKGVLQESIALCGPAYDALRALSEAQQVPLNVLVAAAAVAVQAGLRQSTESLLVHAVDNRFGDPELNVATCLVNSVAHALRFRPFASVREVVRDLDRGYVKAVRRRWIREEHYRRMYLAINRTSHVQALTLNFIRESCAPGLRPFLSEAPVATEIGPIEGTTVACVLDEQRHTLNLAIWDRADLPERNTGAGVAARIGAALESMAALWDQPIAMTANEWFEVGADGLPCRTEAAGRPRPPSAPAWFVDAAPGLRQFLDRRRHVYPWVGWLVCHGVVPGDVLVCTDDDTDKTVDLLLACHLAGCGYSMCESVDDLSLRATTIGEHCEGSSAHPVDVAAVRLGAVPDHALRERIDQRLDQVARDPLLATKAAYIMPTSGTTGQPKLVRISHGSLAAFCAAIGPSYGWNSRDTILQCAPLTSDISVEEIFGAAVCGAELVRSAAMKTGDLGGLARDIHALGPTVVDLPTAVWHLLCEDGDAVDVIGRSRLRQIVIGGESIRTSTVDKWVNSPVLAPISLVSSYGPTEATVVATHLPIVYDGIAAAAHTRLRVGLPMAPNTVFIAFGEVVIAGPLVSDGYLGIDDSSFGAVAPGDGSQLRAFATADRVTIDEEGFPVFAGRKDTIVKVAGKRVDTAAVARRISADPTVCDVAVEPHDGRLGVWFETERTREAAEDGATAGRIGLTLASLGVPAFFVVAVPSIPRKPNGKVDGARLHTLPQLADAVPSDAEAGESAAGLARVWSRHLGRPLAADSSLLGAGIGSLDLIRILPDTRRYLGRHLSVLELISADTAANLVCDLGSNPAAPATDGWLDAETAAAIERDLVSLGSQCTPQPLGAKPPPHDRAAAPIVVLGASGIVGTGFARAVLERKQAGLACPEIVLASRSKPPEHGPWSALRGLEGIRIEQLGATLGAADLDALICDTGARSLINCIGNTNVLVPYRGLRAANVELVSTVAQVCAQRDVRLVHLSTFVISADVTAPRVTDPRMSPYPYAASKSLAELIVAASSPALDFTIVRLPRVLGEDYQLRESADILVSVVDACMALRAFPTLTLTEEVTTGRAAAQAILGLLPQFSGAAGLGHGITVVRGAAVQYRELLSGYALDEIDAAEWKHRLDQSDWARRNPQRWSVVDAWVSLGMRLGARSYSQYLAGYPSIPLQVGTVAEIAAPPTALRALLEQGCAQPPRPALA"}, "MmaE": {"biological_target": "MmaE (Mycobacterium marinum, UniProt B2HKM3)", "sequence (B2HKM3 whole entry)": "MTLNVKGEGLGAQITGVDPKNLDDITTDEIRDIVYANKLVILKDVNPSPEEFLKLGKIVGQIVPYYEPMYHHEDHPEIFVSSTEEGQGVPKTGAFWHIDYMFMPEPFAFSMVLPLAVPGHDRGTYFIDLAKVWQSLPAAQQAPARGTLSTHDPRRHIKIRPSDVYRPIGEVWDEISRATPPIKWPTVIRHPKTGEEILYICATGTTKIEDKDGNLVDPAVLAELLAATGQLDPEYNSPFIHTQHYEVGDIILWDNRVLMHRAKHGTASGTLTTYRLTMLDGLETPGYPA", "assay": "LC-HRMS of Py-AP after tetrazine click", "format": "biochemical", "settings": "α-KG, Fe(II), 50 mM HEPES pH 8.0, room temperature"}}}
{"smiles": "[C-]#[N+]C(CCCCCCC)CC(=O)O", "note": "(stereo not shown) [INDA, 3-isocyanodecanoic acid]", "values": [{"measurement": "LC-HRMS intact protein and Ppant ejection; loading onto holo-Rv0100", "setting": "Rv0099", "result": "INDA, ATP, Rv0099, and Rv0100 yielded the expected product, INDA-S-Rv0100"}]}
{"smiles": "NCCCC[C@H](N)C(=O)O", "note": "[lysine]", "values": [{"measurement": "LC-HRMS of INLP6; coupled assay with Rv0097/MmaE and Rv0098-0100", "setting": "MmaA", "result": "together with 2-decenoic acid, ATP, Gly, α-KG, Lys, and NADPH, generated INLP6"}]}
{"smiles": "CCCCCCCC=CC(=O)O", "note": "[2-decenoic acid]", "values": [{"measurement": "LC-HRMS intact protein and Ppant ejection; loading onto holo-Rv0100", "setting": "Rv0099", "result": "Rv0099-catalyzed reaction containing holo-Rv0100, 2-decenoic acid, and ATP"}]}
{"smiles": "CCCCCCCC(CC(=O)O)NCC(=O)O", "note": "(stereo not shown) [CADA, 3-[(carboxymethyl)amino]decanoic acid]", "values": [{"measurement": "LC-HRMS of Py-AP after tetrazine click; turnover", "setting": "MmaE", "result": "INDA was only detected from the assay with MmaE"}]}
